System: A431 cells
Assay: Probe incubation, irradiation at 24 J/cm^2 and NucleoCounter NC-3000 cell vitality assay after about 24 hours
Type: cell-based, human
Conditions: for Cell Number / Cell Vitality: 24 J/cm^2, about 24 hours after irradiation, EGF probe 0.5 μM, panitumumab probe 0.1 μM
Method: A431 cells were plated and incubated with either probe for 5 minutes, 10 minutes or 20 minutes prior to washing and irradiation at 24 J/cm^2. […] After irradiation, the cells were cultured at 37° C., 5% CO2 for approximately 24 hours. The NucleoCounter® NC-3000™ cell vitality assay (Chemometec, Allerød, Denmark) was performed.

## IRDye® 700DX-panitumumab
5 minutes probe incubation
  Cell Number: 675,000 cells/mL
  Cell Vitality: 44.2%
10 minutes probe incubation
  Cell Number: 323,000 cells/mL
  Cell Vitality: 34%
20 minutes probe incubation
  Cell Number: 550,000 cells/mL
  Cell Vitality: 31%
20 minutes vs. 5 minutes incubation, 24 J/cm^2
  effect of longer incubation time on cell death: increased the number of cells undergoing cell death
Average over 5, 10 and 20 minutes incubation, 24 J/cm^2
  cell death averaged over the time periods: about 60%

— patent US20150343060A1, “TREATMENT OF CIRCULATING TUMOR CELLS USING AN EXTRACORPOREAL DEVICE” (priority 2014, published 2015)
